Measured values as given in patent US20070059385A1, “Safe pharmaceutical composition for treating and preventing cancer and method of use” (priority 2005, published 2007).

What was measured:
TA97 = assay: Salmonella mutagenicity assay TA97
Protocol: (§1) The method for detecting mutagenicity of HHT, with the Salmonella system that detects the reversion of the bacteria from His^− to His^+, is widely used.
(§2) The bacterial tester strains used for mutagenesis testing are TA97, TA98, TA100 and TA102. Mutagenesis testing method was done as described previously ^[77-88]. In brief, TA97, TA98, TA100 and TA102 were grown in agar gel culture. The petri plats (100×15 mm style) contain 30 ml with 2% glucose. The agar mixture was agitated vigorously and immediately poured into plates of minimal agar. The cultures were incubated at 37° C. in a dark and 5% CO2 in air for 48 hours. After 48 hours the colonies in both test and controls are counted. The presence of a background lawn of bacteria on the histidine-poor soft agar plate was used as an indication that gross toxic effects were absent. Mutagenicity assays were carried out at least in triplicate.
(§3) The range of spontaneous mutation rates for the individual strains, which were considered to be acceptable, was TA97 (100-170), TA98 (20-40) and TA100 (80-150).

tyrosine kinase (TK) = assay: Tyrosine kinase (TK) assay in HL-60 leukemia cells; type: cell-based, human
Protocol: Tyrosine kinase (TK) Assay: TK was measured by a modification of the method of Braun et al. Briefly, H-60 leukemia cells were plated at a density of 5×10^5 cells in […], and divided control and treatments groups for incubation 24 hours at 37° C. with 5% CO2. The cells were collected by scraping, washed twice with phosphate-buffered saline, and resuspended at density of 10^6 cells/ml in 5 mM HEPEs buffer (pH 7.4). The cells were then resuspended in 1 ml of buffer containing 5 mM HEPES (pH 7.6), 1 mM MgCl2 and 1 mM EDTA, then placed on ice bath. The cell membrane was disrupted by ultra sound and centrifuged at 1,000×g for 10 minutes. The supernatant was ultra centrifuged at 30,000×g for 30 minutes at 4° C. The pellet was resuspended in 0.3 ml of buffer containing 25 mM HEOES, centrifuged at 12,000×g for 5 minutes. The resulting supernatant was used for TK assay. Content of protein was determined. 10 μg of protein placed in 20 mM HEPES (pH 7.6), 15 mM MgCl2, 10 mM ZnCl2 and 5% (v/v) nonidet P-40, with or without substrate [glutamic acid (GT), mg/ml]. After 5 minutes incubation at 25° C., the reaction was initiated by the addition of 25 μM [γ^32P] ATP (3 ci/mmol). After 10 minutes, the reaction was stopped by the addition of 20 mM cold ATP. 50 μl of the mixtures were spotted on glass microfiber filter discs and washed three times with cold trichloroacetic acid (TCA), contained 10 mM sodium pyrophosphate. Air dried. Radioactivity was determined by liquid scintillation spectrometry. The net TK activity was determined after correcting for endogenous TK activity.

Normal cells = assay: Apoptosis of normal cells; type: cell-based
Protocol: Cells ([…] were incubated in 10 ml IMDM plus […] heat-inactivated fetal calf serum. Samples were incubated for 24 hours with various concentrations of drugs. Control samples received the same amount of media, without drug addition. After 24 hours of incubation the samples were pelleted and fixed in ethanol […] for 15 minutes at 4° C.; after three washes in PBS, the cells were treated with RNase I 0.5 mg/ml for 15 minutes at 37° C. The cells were harvested by centrifugation and resuspended in 50 μg/ml propidium iodide in PBS. Analysis (upon acquisition of 10,000-20,000 events) was performed on a FACscan flow cytometer with the FL2 detector in logarithmic mode, using Lysis II software (Becton Dickinson). Apoptotic cells were located in the hypodiploid region of the histogram, due to chromosome condensation and fragmentation.
For evaluation of apoptosis by flow cytometry, cells were fixed and permeabilized in 1% paraformaldehyde and ice-cold 70% ethanol. Digoxigenin-dUTP was incorporated at the 3′OH ends of the fragmented DNA in the presence of terminal deoxynucleotidyltranserase, and the cells were incubated with FITC-labeled anti-digoxigenin-dUTP and with propidium iodide. Green (apoptotic cells) and orange (total DNA) fluorescence were measured with a FACScan flow cytometer and analyzed with LYSIS II and CELLFIT programs. Data were analyzed by Student's t-test. P values were considered significant when <0.05. […]

[1] = Toxic dose for mice (LD50); type: in vivo
TA100 = assay: Salmonella mutagenicity assay TA100
Protocol: as §1, §2, §3

cancer cells = assay: Inhibition of tumor cell proliferation; type: cell-based; details: Homo sapiens; 1 μg/ml drug, 72 hours; read-out: Inhibition (%) of growth of cancer cells
Protocol: Human tumor cell lines: Hela leukemia HL-60, malignant melanocarcinoma B 16, oral epidermoid carcinoma (KB), lung carcinoma (A549), breast carcinoma MCF-7, adenocarcinoma of stomach.
Animal tumor cell lines: Walker carcinoma, LLC-WRC-256, malignant melanoma (RMMI 1846), 3T3, and S-1 80 sarcoma (CCRF-180). All lines were routinely cultured in the RPMI1640 medium supplemented 20% fetal calf serum. The experiment was carried out in 96 microplate, each well had 5×10^5 cells and given desired concentration of 1 μg/ml (1×10^−6 g/ml) drug. Then the plate was incubated at 37° C. in an atmosphere of humidified air enriched with 5 percent carbon dioxide for 72 hours. Inhibition percent rate of tumor cell proliferation was obtained according to the bellow formula. [formula]

TA98 = assay: Salmonella mutagenicity assay TA98
Protocol: as §1, §2, §3

Structure (SMILES): COC(=O)C[C@](O)(CCCC(C)(C)O)C(=O)O[C@@H]1C(OC)=C[C@]23CCCN2CCc2cc4c(cc2[C@H]13)OCO4 [HHT, Homoharringtonine]
- Number of His^+ revertants/plate (TA97; TA97 +S, 0.1 μg/plate): 145 ± 14 revertants/plate
- Number of His^+ revertants/plate (TA97; TA97 +S, 1 μg/plate): 150 ± 14 revertants/plate
- Number of His^+ revertants/plate (TA97; TA97 +S, 10 μg/plate): 165 ± 16 revertants/plate
- Number of His^+ revertants/plate (TA97; TA97 +S, 100 μg/plate): 160 ± 17 revertants/plate
- Number of His^+ revertants/plate (TA97; TA97 −S, 0.1 μg/plate): 120 ± 10 revertants/plate
- Number of His^+ revertants/plate (TA97; TA97 −S, 1 μg/plate): 130 ± 11 revertants/plate
- Number of His^+ revertants/plate (TA97; TA97 −S, 10 μg/plate): 160 ± 16 revertants/plate
- Number of His^+ revertants/plate (TA97; TA97 −S, 100 μg/plate): 150 ± 16 revertants/plate
- inhibition of HL-60 TK activity (tyrosine kinase (TK); 10^−7 M): 78.5%
- inhibition of HL-60 TK activity (tyrosine kinase (TK); 10^−8 M): 12.2%
- % of control activity (TK) (tyrosine kinase (TK); HL-60 leukemia cells, 10^−6 M): 0.6%
- % of control activity (TK) (tyrosine kinase (TK); HL-60 leukemia cells, 10^−8 M): 87.8 ± 12%
- % of control activity (TK) (tyrosine kinase (TK); Table 8, concentration not given): 21.5 ± 4.0%
- Apoptosis (%) (Normal cells; HHT 10 ng/ml): 16.5 ± 2.0 %
- Apoptosis (%) (Normal cells; HHT 50 ng/ml): 18.5 ± 2.5 %
- Apoptosis (%) (Normal cells; HHT 100 ng/ml): 22.0 ± 3.5 %
- Apoptosis (%) (Normal cells; HHT 500 ng/ml): 29.5 ± 5.2 %
- Apoptosis (%) (Normal cells; Table 4, HHT (50 ng/ml) alone or in combination): 18.5 ± 2.5%
- mice died ([1]; 38 normal mice, 2 mg/kg/day×5, observation period of 5 days): about 50%
- LD50 ([1]; mouse, in vivo, ip, mice, I.P.): 3.17 ± 0.19 mg/kg
- Number of His^+ revertants/plate (TA100; TA100 +S, 0.1 μg/plate): 158 revertants/plate
- Number of His^+ revertants/plate (TA100; TA100 +S, 1 μg/plate): 152 revertants/plate
- Number of His^+ revertants/plate (TA100; TA100 +S, 10 μg/plate): 165 revertants/plate
- Number of His^+ revertants/plate (TA100; TA100 +S, 100 μg/plate): 160 revertants/plate
- Number of His^+ revertants/plate (TA100; TA100 −S, 0.1 μg/plate): 148 ± 12 revertants/plate
- Number of His^+ revertants/plate (TA100; TA100 −S, 1 μg/plate): 140 ± 13 revertants/plate
- Number of His^+ revertants/plate (TA100; TA100 −S, 10 μg/plate): 162 ± 17 revertants/plate
- Number of His^+ revertants/plate (TA100; TA100 −S, 100 μg/plate): 158 ± 15 revertants/plate
- inhibition at 1 µg/mL (cancer cells): 73.8 ± 8.1%
- Number of His^+ revertants/plate (TA98; TA98 +S, 0.1 μg/plate): 34 ± 4 revertants/plate
- Number of His^+ revertants/plate (TA98; TA98 +S, 1 μg/plate): 32 ± 4 revertants/plate
- Number of His^+ revertants/plate (TA98; TA98 +S, 10 μg/plate): 36 ± 3 revertants/plate
- Number of His^+ revertants/plate (TA98; TA98 +S, 100 μg/plate): 34 ± 4 revertants/plate
- Number of His^+ revertants/plate (TA98; TA98 −S, 0.1 μg/plate): 29 ± 3 revertants/plate
- Number of His^+ revertants/plate (TA98; TA98 −S, 1 μg/plate): 30 ± 3 revertants/plate
- Number of His^+ revertants/plate (TA98; TA98 −S, 10 μg/plate): 38 ± 4 revertants/plate
- Number of His^+ revertants/plate (TA98; TA98 −S, 100 μg/plate): 32 ± 4 revertants/plate
